Laboratory results taken from patent US9169260B2 (MERCK SHARP & DOHME CORP., priority 2011, dated 2015).

Target: GST tagged IRAK-4 (Homo sapiens (Human), UniProt Q9NWZ3)
Assay: IRAK-4 Kinase Assay (IMAP fluorescence polarization)
Format: biochemical
Details: 100 μM ATP, 30 minutes at 25° C.
Experimental: The kinase activity of IRAK-4 is determined by its ability to catalyze the phosphorylation of a fluorescent polypeptide substrate. The extent of phosphorylation is measured using the IMAP technology (Molecular Devices) where the phosphorylated fluorescent substrate binds to the large M(III)-based nanoparticles which reduces the rotational speed of the substrate and thus increases its fluorescent polarization (FP).
20 μl reaction mixture contains 10 mM TriHCl, pH 7.2, 0.5 nM GST tagged IRAK-4 (SignalChem), 100 nM fluorescent peptide substrate (RP7030, Molecular Devices), 100 μM ATP, 1 mM DTT, 1 mM MgCl2, and 0.01% Tween 20. The reaction is initiated by the addition of ATP. After incubation for 30 minutes at 25° C., 60 μl of Progressive IMAP Reagent (Molecular Devices) is added to stop the reaction. Change in RP7030's FP is determined by a FP reader (Analyst HT, LH, BioSystems).

Sequence of GST tagged IRAK-4 (Q9NWZ3 whole entry): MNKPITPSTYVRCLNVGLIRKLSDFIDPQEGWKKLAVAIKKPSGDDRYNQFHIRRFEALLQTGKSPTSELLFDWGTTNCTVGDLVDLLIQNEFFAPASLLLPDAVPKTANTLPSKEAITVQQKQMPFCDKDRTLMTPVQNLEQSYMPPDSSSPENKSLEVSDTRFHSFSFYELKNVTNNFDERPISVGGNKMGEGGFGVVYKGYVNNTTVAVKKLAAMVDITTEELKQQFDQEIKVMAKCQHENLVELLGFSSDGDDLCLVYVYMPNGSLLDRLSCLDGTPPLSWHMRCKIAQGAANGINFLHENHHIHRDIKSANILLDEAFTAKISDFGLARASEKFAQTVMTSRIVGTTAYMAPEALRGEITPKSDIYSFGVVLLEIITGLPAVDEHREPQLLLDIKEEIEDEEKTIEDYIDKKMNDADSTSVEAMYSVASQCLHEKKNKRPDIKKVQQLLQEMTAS

Row | IC50 (μM) [µM] | IC50 [µM] | Compound
1 | < 1 |  | Cc1ccc(-n2nc(C3CCN(S(=O)(=O)Cc4noc5ccccc45)CC3)cc2NC(=O)c2cnn3cccnc23)cc1 [Example 356, N-[3-{1-[(1,2-benzisoxazol-3-ylmethyl)sulfonyl]piperidin-4-yl}-1-(4-methylphenyl)-1H-pyrazol-5-yl]pyrazolo[1,5-a]pyrimidine-3-carboxamide]
2 | < 1 |  | Cc1ccc(-n2nc(C3CCN(C4CN(S(=O)(=O)CF)C4)CC3)cc2NC(=O)c2cnn3cccnc23)cc1 [Example 247, N-[3-(1-{1-[(fluoromethyl)sulfonyl]azetidin-3-yl]piperidin-4-yl)-1-(4-methylphenyl)-1H-pyrazol-5-yl}pyrazolo[1,5-a]pyrimidine-3-carboxamide]
3 | < 1 |  | Cc1ccc(-n2nc(C3CCCN(Cc4cncs4)C3)cc2NC(=O)c2cnn3cccnc23)cc1 (stereo not drawn) [Example 284, N-{1-(4-methylphenyl)-3-[1-(1,3-thiazol-5-ylmethyl)piperidin-3-yl]-1H-pyrazol-5-yl}pyrazolo[1,5-a]pyrimidine-3-carboxamide]
4 | > 1 |  | CS(=O)(=O)N1CCC(c2cc(NC(=O)c3cnn4cccnc34)n(-c3nccn3S(C)(=O)=O)n2)CC1 [Example 188, N-(1-(1-(methylsulfonyl)-1H-imidazol-2-yl)-3-(1-(methylsulfonyl)piperidin-4-yl)-1H-pyrazol-5-yl)pyrazolo[1,5-a]pyrimidine-3-carboxamide]
5 |  | < 0.1 | CN1CCC(c2cc(NC(=O)c3cnn4cccnc34)n(-c3ccc(C4CC4)cc3F)n2)CC1 [Example 398, N-(1-(4-cyclopropyl-2-fluorophenyl)-3-(1-methylpiperidin-4-yl)-1H-pyrazol-5-yl)pyrazolo[1,5-a]pyrimidine-3-carboxamide]
6 | < 1 |  | COC(=O)N1CC(N2CCC(c3cc(NC(=O)c4cnn5cccnc45)n(-c4ccc(C)cc4)n3)CC2)C1 [Example 238, methyl 3-(4-{1′-(4-methylphenyl)-5-[(pyrazolo[1,5-a]pyrimidin-3-ylcarbonyl)amino]-1H-pyrazol-3-yl}piperidin-1-yl)azetidine-1-carboxylate]
7 |  | < 0.1 | Cc1ccc(-n2nc(C3CN(Cc4cncs4)C3)cc2NC(=O)c2cnn3cccnc23)cc1 [Example 312, N-{1-(4-methylphenyl)-3-[1-(1,3-thiazol-5-ylmethyl)azetidin-3-yl]-1H-pyrazol-5-yl}pyrazolo[1,5-a]pyrimidine-3-carboxamide]
8 |  | < 0.1 | Cc1ccc(-n2nc(C3CCN(C4CCCCC4)CC3)cc2NC(=O)c2cnn3cccnc23)cc1 [Example 204, N-[3-(1-cyclohexylpiperidin-4-yl)-1-(4-methylphenyl)-1H-pyrazol-5-yl]pyrazolo[1,5-a]pyrimidine-3-carboxamide]
9 | < 1 |  | Cc1ccc(-n2nc(C3CCN(S(=O)(=O)c4cc(F)cc(F)c4)CC3)cc2NC(=O)c2cnn3cccnc23)cc1 [Example 360, N-[3-{1-[(3,5-difluorophenyl)sulfonyl]piperidin-4-yl}-1-(4-methylphenyl)-1H-pyrazol-5-yl]pyrazolo[1,5-a]pyrimidine-3-carboxamide]
10 | < 1 |  | Cc1ccc(-n2nc(C3CCN(Cc4cccnc4)CC3)cc2NC(=O)c2cnn3cccnc23)cc1 [Example 225, N-{1-(4-methylphenyl)-3-[1-(pyridin-3-ylmethyl)piperidin-4-yl]-1H-pyrazol-5-yl}pyrazolo[1,5-a]pyrimidine-3-carboxamide]
11 |  | < 0.1 | Cc1ccc(-n2nc(N3CCN(C4CCCCCC4)CC3)cc2NC(=O)c2cnn3cccnc23)nc1 [Example 322, N-[3-(4-cycloheptylpiperazin-1-yl)-1-(5-methylpyridin-2-yl)-1H-pyrazol-5-yl]pyrazolo[1,5-a]pyrimidine-3-carboxamide]
12 |  | < 0.1 | [2H]C([2H])([2H])c1ccc(-n2nc(N3CCN(C)CC3)cc2NC(=O)c2cnn3cccnc23)nc1 [Example 198, N-(3-(4-methylpiperazin-1-yl)-1-(5-trideuteromethylpyridin-2-yl)-1H-pyrazol-5-yl)pyrazolo[1,5-a]pyrimidine-3-carboxamide]
13 | < 1 |  | Cc1ccc(-n2nc(C3CCN(C4CN(C(=O)OC(C)(C)C)C4)CC3)cc2NC(=O)c2cnn3cccnc23)cc1 [Example 261, tert-butyl 3-(4-{1-(4-methylphenyl)-5-[(pyrazolo[1,5-a]pyrimidin-3-ylcarbonyl)amino]-1H-pyrazol-3-yl}piperidin-1-yl)azetidine-1-carboxylate]
14 |  | < 0.1 | CNC(=O)c1ccc(-c2cc(NC(=O)c3cnn4cccnc34)n(-c3ccc(C)cc3)n2)cc1 [Example 348, N-{3-[4-(methylcarbamoyl)phenyl]-1-(4-methylphenyl)-1H-pyrazol-5-yl}pyrazolo[1,5-a]pyrimidine-3-carboxamide]

More lines, now with the values behind:

Row | Compound | IC50 (μM) [µM] | IC50 [µM]
15 | Cc1ccc(-n2nc(-c3cncnc3)cc2NC(=O)c2cnn3cccnc23)cc1 [Example 137, N-(3-(pyrimidin-5-yl)-1-(p-tolyl)-1H-pyrazol-5-yl)pyrazolo[1,5-a]pyrimidine-3-carboxamide] | > 1 | 
16 | CS(=O)(=O)N1CCC(c2cc(NC(=O)c3cnn4cccnc34)n(-c3ccc(F)cc3F)n2)CC1 [Example 28] | < 1 | 
17 | Cc1ccc(-n2nc(-c3ccc(CN4CCOCC4)cc3)cc2NC(=O)c2cnn3cccnc23)cc1 [Example 145, N-(3-(4-(morpholinomethyl)phenyl)-1-(p-tolyl)-1H-pyrazol-5-yl)pyrazolo[1,5-a]pyrimidine-3-carboxamide] |  | < 0.1
18 | COc1ccc(-n2nc(C3CCNCC3)cc2NC(=O)c2cnn3cccnc23)cc1 [Example 8, N-(1-(4-methoxyphenyl)-3-(piperidin-4-yl)-1H-pyrazol-5-yl)pyrazolo[1,5-a]pyrimidine-3-carboxamide] | < 1 | 
19 | COc1ccc(-n2nc(C3CCN(S(C)(=O)=O)CC3)cc2NC(=O)c2cnn3cccnc23)c(F)c1 [Example 64, N-(1-(2-fluoro-4-methoxyphenyl)-3-(1-(methylsulfonyl)piperidin-4-yl)-1H-pyrazol-5-yl)pyrazolo[1,5-a]pyrimidine-3-carboxamide] |  | < 0.1
20 | N3-(3-(1-(methylsulfonyl)piperidin-4-yl)-1-(p-tolyl)-1H-pyrazol-5-yl)pyrazolo[1,5-a]pyrimidine-3,6-dicarboxamide [Example 192] |  | < 0.1
21 | N#Cc1ccc(-n2nc(C3CCNCC3)cc2NC(=O)c2cnn3cccnc23)cc1 [Example 12, N-(1-(4-cyanophenyl)-3-(piperidin-4-yl)-1H-pyrazol-5-yl)pyrazolo[1,5-a]pyrimidine-3-carboxamide] | > 1 | 
22 | Cc1ccc(-n2nc(-c3ccncc3)cc2NC(=O)c2cnn3cccnc23)cc1F [Example 128, N-(1-(3-fluoro-4-methylphenyl)-3-(pyridin-4-yl)-1H-pyrazol-5-yl)pyrazolo[1,5-a]pyrimidine-3-carboxamide] | < 1 | 
23 | Cc1ccc(-n2nc(CC3CCOCC3)cc2NC(=O)c2cnn3cccnc23)cc1 [Example 45, N-(3-((tetrahydro-2H-pyran-4-yl)methyl)-1-(p-tolyl)-1H-pyrazol-5-yl)pyrazolo[1,5-a]pyrimidine-3-carboxamide] | < 1 | 
24 | Cc1ccc(-n2nc(-c3ccc(N)cc3)cc2NC(=O)c2cnn3cccnc23)cc1 [Example 102, N-(3-(4-aminophenyl)-1-(p-tolyl)-1H-pyrazol-5-yl)pyrazolo[1,5-a]pyrimidine-3-carboxamide] | < 1 | 
